The source of these data is PubChem BioAssay (NCI).

Common to all, as to test: NCI-60 cell line screen, 48 h
Assay [1] has as its system A498 renal.
In assay [2] the test system is ACHN renal.
The test system of assay [3] is HCC-2998 colon.
Assay [4] deals with HCT-116 colon.
Assay [5] relates to K-562 leukemia.
Assay [6] relates to M14 melanoma.
For assay [7], the system named is RPMI-8226 leukemia.
Assay [8] deals with SK-MEL-2 melanoma.
Assay [9] concerns UO-31 renal.

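All cell lines were grown in 96-well plates and treated with compound for 48 hours. Definition used: TGI = concentration required for complete inhibition of growth.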 Bounds are passed on as bounds.

`C/C(O)=C(\N=O)C(=O)Nc1ccc(Cl)cc1Cl`: the TGI in assay [1], in assay [2], in assay [3], in assay [4], in assay [5] and in assay [6] was over 100 µM throughout. Moreover, the TGI in assay [7], in assay [8] and in assay [9] was over 100 µM throughout.

Turning to `O=C(O)CCSC(=O)Nc1ccc([N+](=O)[O-])cc1`, the TGI in assay [1], in [2], in assay [3], in assay [4], in assay [5] and in assay [6] was over 100 µM throughout. Besides, the TGI in assay [7], in assay [8] and in assay [9] was over 100 µM throughout.

As for `COCCCNC(=O)C1C(=O)C(=O)N(CCCOC)C1=O` (stereo unspecified), the TGI in assay [1], in assay [2], in assay [3], in [4], in assay [5] and in assay [6] was over 100 µM each time. The TGI in assay [7], in assay [8] and in [9] was over 100 µM in each case.

`NC12CC3CC(C1)CC(C(=O)O)(C3)C2`: the TGI in assay [1], in assay [2], in [3], in [4], in [5] and in [6] was over 100 µM each time. Also, the TGI in [7] and in [9] was over 100 µM each time.

For `CC(SC(=S)N1CCOCC1)c1cc2oc(=O)n(C)c2cc1Cl` (stereo unspecified), the TGI in [2], in assay [3], in [4], in assay [5], in [6] and in assay [7] was over 100 µM each time. For the same compound, the TGI in assay [8] and in assay [9] was over 100 µM in each case.

For `N#C/C(=C\c1ccc2ccccc2c1)c1ccccc1`, the TGI was 76.4 µM in assay [1]; 98.3 µM in assay [2]; 87.9 µM in assay [3]; over 100 µM in assay [4]; 65.6 µM in assay [6]; over 100 µM in assay [7]. Besides, the TGI turned out to be 85 µM in assay [8] and 86.7 µM in assay [9].

Consider `CCc1ccccc1NC(=O)C1=C(C)NC(C)=C(C(=O)Nc2ccccc2CC)C1c1ccc2c(c1)OCO2`, for which the TGI in assay [1] is 81.5 µM; in assay [2] it was 90.7 µM; in assay [3], 41 µM; in assay [5], over 100 µM; in assay [6], over 100 µM; in assay [7] it was 49.5 µM. For the same compound, the results for the TGI in assay [8] and in assay [9] were 53.1 µM and 70.5 µM, respectively.

Turning to `CNC(=O)C1CCc2nnc(-c3ccccc3)n21` (stereo unspecified), the TGI in assay [1], in assay [2], in [3], in [4], in [5] and in assay [6] was over 100 µM each time. Also, the TGI in assay [7], in assay [8] and in assay [9] was over 100 µM each time.

Consider `COc1ccc2c(c1)[n+](=O)c(C(=O)C/C(=N/OCCCc1ccccc1)C(=O)NC13CC4CC(CC(C4)C1)C3)c(C)n2[O-]`, for which the TGI in assay [1], in assay [2], in [3], in assay [4], in assay [5] and in [6] was over 100 µM throughout. For the same compound, the TGI in [7], in assay [8] and in assay [9] was over 100 µM each time.

As to `O=C(CCc1cc(-c2ccccc2)nc(=S)[nH]1)N(Cc1ccccc1)Cc1ccccc1`, the TGI in [1], in assay [2], in assay [3], in [4], in assay [5] and in assay [6] was over 100 µM in each case. Besides, the TGI in assay [7], in assay [8] and in [9] was over 100 µM each time.

For the compound `COc1ccc2nc3c(C(=O)NCCN(C)C)cccc3nc2c1`, the TGI was 7.54 µM in assay [1]; over 100 µM in assay [2]; 20 µM in assay [3]; 28.1 µM in assay [4]; 29.5 µM in assay [5]; 19.5 µM in assay [6]. Further, the figures for the TGI in assay [8] and in assay [9] were 21.8 µM and 47.9 µM, respectively.

For the compound `NC(=O)COC(=O)c1c(Cl)nc2sccn12`, the TGI in assay [1] was over 100 µM; in assay [2], over 100 µM; in assay [3], over 100 µM; in assay [4], over 31.6 µM; in assay [5], over 100 µM; in assay [6], over 100 µM. In addition, the TGI in [7] was over 66.4 µM; in assay [8] it was over 100 µM; in [9] it was over 100 µM.

On to `NC1=NC(c2ccccc2)CC(c2cc(Cl)ccc2O)=N1` (stereo unspecified), for which the TGI was determined as 34.5 µM in assay [1]; 29.4 µM in [2]; 29.4 µM in assay [3]; 27.6 µM in assay [4]; 40.8 µM in [5]; 30.5 µM in assay [6]. The TGI in assay [7] turned out to be 41 µM; in [9] it was 29.2 µM.

With `O=C(CC1(O)C(=O)Nc2c(Cl)ccc(Cl)c21)c1ccc(F)cc1` (stereo unspecified), the TGI in assay [2] is over 100 µM; in assay [3] it was over 100 µM; in assay [5], over 100 µM; in assay [6], over 100 µM; in assay [7] it was 47.9 µM; in [8] it was over 100 µM. Besides, the TGI in assay [9] is over 100 µM.

For the compound `O=[N+]([O-])c1ccc(C=NC2CCCCC2)cc1`, the TGI in assay [1], in [2], in assay [3], in assay [4], in assay [5] and in [6] was over 100 µM each time. Moreover, the TGI in [8] and in assay [9] was over 100 µM throughout.
